IC50 data for 31 compounds are collected here from US11192891B2, “Diazaspiro ROCK inhibitors” (BRISTOL-MYERS SQUIBB COMPANY, priority 2017, dated 2021).

ROCK2, sequence (O75116 whole entry, species assumed): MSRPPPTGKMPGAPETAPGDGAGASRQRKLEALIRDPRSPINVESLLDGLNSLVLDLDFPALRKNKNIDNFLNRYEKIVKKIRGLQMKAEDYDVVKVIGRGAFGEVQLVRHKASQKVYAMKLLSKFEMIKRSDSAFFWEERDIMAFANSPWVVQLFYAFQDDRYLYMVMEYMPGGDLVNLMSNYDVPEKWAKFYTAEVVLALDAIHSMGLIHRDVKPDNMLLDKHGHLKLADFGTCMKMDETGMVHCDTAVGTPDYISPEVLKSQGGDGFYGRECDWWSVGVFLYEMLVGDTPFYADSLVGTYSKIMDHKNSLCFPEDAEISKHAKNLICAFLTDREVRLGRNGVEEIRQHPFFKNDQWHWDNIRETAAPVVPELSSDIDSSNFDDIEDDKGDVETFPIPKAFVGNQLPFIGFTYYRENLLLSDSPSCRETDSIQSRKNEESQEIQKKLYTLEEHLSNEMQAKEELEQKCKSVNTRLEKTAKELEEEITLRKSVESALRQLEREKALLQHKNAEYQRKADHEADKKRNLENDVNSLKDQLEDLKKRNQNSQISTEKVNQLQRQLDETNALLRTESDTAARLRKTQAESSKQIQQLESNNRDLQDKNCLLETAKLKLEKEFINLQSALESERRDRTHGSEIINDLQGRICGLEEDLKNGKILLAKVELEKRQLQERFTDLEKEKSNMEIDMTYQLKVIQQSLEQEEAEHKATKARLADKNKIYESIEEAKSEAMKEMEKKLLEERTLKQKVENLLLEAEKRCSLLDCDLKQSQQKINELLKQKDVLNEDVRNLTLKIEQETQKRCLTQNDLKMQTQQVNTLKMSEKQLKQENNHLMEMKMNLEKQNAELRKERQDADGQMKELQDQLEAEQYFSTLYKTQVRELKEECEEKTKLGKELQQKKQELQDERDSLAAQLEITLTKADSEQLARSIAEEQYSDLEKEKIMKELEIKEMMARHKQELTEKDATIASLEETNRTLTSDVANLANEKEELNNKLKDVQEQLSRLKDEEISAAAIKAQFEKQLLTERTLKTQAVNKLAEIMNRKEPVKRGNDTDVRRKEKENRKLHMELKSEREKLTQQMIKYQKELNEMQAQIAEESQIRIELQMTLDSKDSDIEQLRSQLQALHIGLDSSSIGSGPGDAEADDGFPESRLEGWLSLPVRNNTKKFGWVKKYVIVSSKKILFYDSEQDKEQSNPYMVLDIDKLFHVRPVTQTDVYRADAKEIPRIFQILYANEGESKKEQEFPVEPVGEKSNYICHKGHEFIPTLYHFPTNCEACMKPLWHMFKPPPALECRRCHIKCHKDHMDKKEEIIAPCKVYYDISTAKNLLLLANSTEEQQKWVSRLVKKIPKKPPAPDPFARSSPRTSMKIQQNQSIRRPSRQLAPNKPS

This assay has as its target ROCK2 (Homo sapiens, UniProt O75116). In words: ROCK kinase inhibition assay, FITC peptide substrate, LABCHIP 3000 readout. As to conditions: 5 μM ATP, 1.5 μM peptide substrate. The format is biochemical. Summed up: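 Rho kinase variants started the reaction with compound present (DMSO <2%); after incubation, EDTA stop, and phosphorylated and non-phosphorylated peptide separated by microfluidic electrophoresis. Dose-response format, inhibition calculated at each concentration.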
`COc1cc(N2CCC3(CCN(C(=O)c4ccc(N5CCN(CCc6ccccc6)CC5)cc4)CC3)C2=O)ccc1-c1cn[nH]c1` [Example 239, 2-[3-methoxy-4-(1H-pyrazol-4-yl)phenyl]-8-{4-[4-(2-phenylethyl)piperazin-1-yl]benzoyl}-2,8-diazaspiro[4.5]decan-1-one] gave an IC50 of 0.6 nM.

`COc1cc(N2CCC3(CCN(C(=O)c4ccc(Oc5ccccc5)cc4)CC3)C2=O)ccc1-c1cn[nH]c1` [Example 60, 2-[3-methoxy-4-(1H-pyrazol-4-yl)phenyl]-8-(4-phenoxybenzoyl)-2,8-diazapsiro[4.5]decan-1-one] returned an IC50 of 54 nM. Against the preceding compound, the IC50 is about 90-fold higher.

In turn, `COc1cc(N2CCC3(CCN(C(=O)C4CCN(C)CC4)CC3)C2=O)ccc1-c1cn[nH]c1` [Example 172, 2-[3-methoxy-4-(1H-pyrazol-4-yl)phenyl]-8-(1-methylpiperidine-4-carbonyl)-2,8-diazaspiro[4.5]decan-1-one] yielded a concentration for half-maximal inhibition (IC50) of 2070 nM.

Turning to `COc1ccc(C(=O)N2CCC3(CC2)CCN(c2ccc(-c4cn[nH]c4)c(OC)c2)C3=O)c(OC)c1` [Example 174, 8-(2,4-dimethoxybenzoyl)-2-[3-methoxy-4-(1H-pyrazol-4-yl)phenyl]-2,8-diazaspiro[4.5]decan-1-one], half-maximal inhibition (IC50) required 29 nM. Against the preceding compound, the IC50 is about 71-fold lower.

`COc1cc(N2CCC3(CCN(C(=O)c4ccc(N5CCN(C(C)C)CC5)cc4)CC3)C2=O)ccc1-c1cn[nH]c1` [Example 233, 2-[3-methoxy-4-(1H-pyrazol-4-yl)phenyl]-8-{4-[4-(propan-2-yl)piperazin-1-yl]benzoyl}-2,8-diazaspiro[4.5]decan-1-one] returned an IC50 of 0.2 nM. This IC50 is about 140-fold lower than that of the compound before.

Take `COc1cc(N2CCC3(CCN(C(=O)c4ccc(CN5CCOCC5)cc4)CC3)C2=O)ccc1-c1cn[nH]c1` [Example 180, 2-[3-methoxy-4-(1H-pyrazol-4-yl)phenyl]-8-{4-[(morpholin-4-yl)methyl]benzoyl}-2,8-diazaspiro[4.5]decan-1-one]: it took 27 nM to reach half-maximal inhibition (IC50).

With `COc1cc(N2CCC3(CCN(S(=O)(=O)c4ccc5[nH]c(=O)[nH]c(=O)c5c4)CC3)C2=O)ccc1-c1cn[nH]c1` [Example 209, 6-({2-[3-methoxy-4-(1H-pyrazol-4-yl)phenyl]-1-oxo-2,8-diazaspiro[4.5]decan-8-yl}sulfonyl)-1,2,3,4-tetrahydroquinazoline-2,4-dione], the IC50 was found to be 410 nM.

`COc1cc(N2CCC3(CCN(C(=O)c4cnc(C)nc4)CC3)C2=O)ccc1-c1cn[nH]c1` [Example 121, 2-[3-methoxy-4-(1H-pyrazol-4-yl)phenyl]-8-(2-methylpyrimidine-5-carbonyl)-2,8-diazaspiro[4.5]decan-1-one] had a half-inhibitory concentration (IC50) of 585 nM.

`COc1cc(N2CCC3(CCN(C(=O)c4ccc(Oc5ncccn5)cc4)CC3)C2=O)ccc1-c1cn[nH]c1` [Example 105, 2-[3-methoxy-4-(1H-pyrazol-4-yl)phenyl]-8-[4-(pyrimidin-2-yloxy)benzoyl]-2,8-diazaspiro[4.5]decan-1-one] came in with an IC50 of 78 nM. This IC50 lies about 7.5-fold lower than the previous one.

In the case of `COc1cc(N2CCC3(CCN(C(=O)c4ccc(N5CC(=O)NC5=O)cc4)CC3)C2=O)ccc1-c1cn[nH]c1` [Example 147, 1-(4-{2-[3-methoxy-4-(1H-pyrazol-4-yl)phenyl]-1-oxo-2,8-diazaspiro[4.5]decane-8-carbonyl}phenyl)imidazolidine-2,4-dione], half-maximal inhibition (IC50) was put at 12 nM.

`COc1cc(N2CCC3(CCN(C(=O)c4ccc(-c5nnc(C)o5)cc4)CC3)C2=O)ccc1-c1cn[nH]c1` [Example 162, 2-[3-methoxy-4-(1H-pyrazol-4-yl)phenyl]-8-[4-(5-methyl-1,3,4-oxadiazol-2-yl)benzoyl]-2,8-diazaspiro[4.5]decan-1-one] gave an IC50 of 27 nM.

Consider `COc1cc(N2CCC3(CCN(C(=O)c4ccc(-n5ccnc5)cc4)CC3)C2=O)ccc1-c1cn[nH]c1` [Example 95, 8-[4-(1H-imidazol-1-yl)benzoyl]-2-[3-methoxy-4-(1H-pyrazol-4-yl)phenyl]-2,8-diazaspiro[4.5]decan-1-one], for which the IC50 came out at 13 nM.

Compound `COc1cc(N2CCC3(CCN(C(=O)c4ccc(Oc5ccc(Cl)cc5)cc4)CC3)C2=O)ccc1-c1cn[nH]c1` [Example 112, 8-[4-(4-chlorophenoxy)benzoyl]-2-[3-methoxy-4-(1H-pyrazol-4-yl)phenyl]-2,8-diazaspiro[4.5]decan-1-one] gave an IC50 of 39 nM.

`COc1cc(N2CCC3(CCN(C(=O)c4ccc(CS(C)(=O)=O)cc4)CC3)C2=O)ccc1-c1cn[nH]c1` [Example 169, 8-[4-(methanesulfonylmethyl)benzoyl]-2-[3-methoxy-4-(1H-pyrazol-4-yl)phenyl]-2,8-diazaspiro[4.5]decan-1-one] displayed an IC50 of 13 nM.

For `COc1cc(N2CCC3(CCN(C(=O)c4ccc(N)cc4Cl)CC3)C2=O)ccc1-c1cn[nH]c1` [Example 189, 8-(4-amino-2-chlorobenzol)-2-[3-methoxy-4-(1H-pyrazol-4-yl)phenyl]-2,8-diazaspiro[4.5]decan-1-one], the IC50 was determined as 38 nM. This IC50 is about 2.9-fold higher than that of the compound before.

As to `COc1cc(N2CCC3(CCN(C(=O)c4cccc(Oc5ccccc5)c4)CC3)C2=O)ccc1-c1cn[nH]c1` [Example 57, 2-[3-methoxy-4-(1H-pyrazol-4-yl)phenyl]-8-(3-phenoxybenzoyl)-2,8-diazaspiro[4.5]decan-1-one], the IC50 was determined as 118 nM. This IC50 lies about 3.1-fold higher than the previous one.

`COc1ccc(S(=O)(=O)N2CCC3(CCN(c4ccc(-c5cn[nH]c5)c(OC)c4)C3=O)CC2)cc1` [Example 206, 2-[3-methoxy-4-(1H-pyrazol-4-yl)phenyl]-8-(4-methoxybenzenesulfonyl)-2,8-diazaspiro[4.5]decan-1-one] returned an IC50 of 497 nM.

Consider `O=C1N(c2ccc(-c3cn[nH]c3)cc2)CCC12CCN(S(=O)(=O)c1ccccc1)CC2` [Example 2, 8-(benzenesulfonyl)-2-[4-(1H-pyrazol-4-yl)phenyl]-2,8-diazaspiro[4.5]decan-1-one], for which the half-maximal inhibitory concentration (IC50) came out at 330 nM.

Compound `COc1cc(N2CCC3(CCN(C(=O)c4ccc(S(N)(=O)=O)cc4)CC3)C2=O)ccc1-c1cn[nH]c1` [Example 55, 4-{2-[3-methoxy-4-(1H-pyrazol-4-yl)phenyl]-1-oxo-2,8-diazaspiro[4.5]decane-8-carbonyl}benzene-1-sulfonamide] registered an IC50 of 96 nM.

In the case of `COc1cc(N2CCC3(CCN(C(=O)c4ccc(N(C)C)cc4)CC3)C2=O)ccc1-c1cn[nH]c1` [Example 21, 8-[4-(dimethylamino)benzoyl]-2-[3-methoxy-4-(1H-pyrazol-4-yl)phenyl]-2,8-diazaspiro[4.5]decan-1-one], the IC50 stood at 16 nM. This IC50 is about 6-fold lower than that of the compound before.

With `COc1cc(N2CCC3(CCN(C(=O)c4cnccn4)CC3)C2=O)ccc1-c1cn[nH]c1` [Example 71, 2-[3-methoxy-4-(1H-pyrazol-4-yl)phenyl]-8-(pyrazine-2-carbonyl)-2,8-diazaspiro[4.5]decan-1-one], the IC50 was determined as 289 nM.

Regarding `COc1cccc(C(=O)N2CCC3(CCN(c4ccc(-c5cn[nH]c5)cc4)C3=O)C2)c1` (stereo not shown) [Example 44, 7-(3-methoxybenzoyl)-2-[4-(1H-pyrazol-4-yl)phenyl]-2,7-diazaspiro[4.4]nonan-1-one], the IC50 came out at 444 nM.

`COc1cc(N2CCC3(CCN(C(=O)c4ccc(N5CCN(C(C)CN(C)C)CC5)cc4)CC3)C2=O)ccc1-c1cn[nH]c1` (stereo not shown) [Example 232, 8-(4-{4-[1-(dimethylamino)propan-2-yl]piperazin-1-yl}benzoyl)-2-[3-methoxy-4-(1H-pyrazol-4-yl)phenyl]-2,8-diazaspiro[4.5]decan-1-one] registered an IC50 of 3.1 nM.

`COc1cc(N2CCC3(CCN(C(=O)c4c[nH]c5ccc(C#N)cc45)CC3)C2=O)ccc1-c1cn[nH]c1` [Example 201, 3-{2-[3-methoxy-4-(1H-pyrazol-4-yl)phenyl]-1-oxo-2,8-diazaspiro[4.5]decane-8-carbonyl}-1H-indole-5-carbonitrile]: the IC50 is 718 nM. Against the preceding compound, the IC50 is about 230-fold higher.

`COc1cc(N2CCC3(CCN(C(=O)c4ccc(CN5CCCC5)cc4)CC3)C2=O)ccc1-c1cn[nH]c1` [Example 168, 2-[3-methoxy-4-(1H-pyrazol-4-yl)phenyl]-8-{4-[(pyrrolidin-1-yl)methyl]benzoyl}-2,8-diazaspiro[4.5]decan-1-one] returned an IC50 of 17 nM. This IC50 is about 42-fold lower than that of the compound before.

On to `COc1cc(N2CCC3(CCN(C(=O)c4ccc(N5CCN(Cc6ccccc6Cl)CC5)cc4)CC3)C2=O)ccc1-c1cn[nH]c1` [Example 223, 8-(4-{4-[(2-chlorophenyl)methyl]piperazin-1-yl}benzoyl)-2-[3-methoxy-4-(1H-pyrazol-4-yl)phenyl]-2,8-diazaspiro[4.5]decan-1-one], for which the IC50 stood at 1.1 nM.

Compound `COc1cc(N2CCC3(CCN(C(=O)c4ccc(N5CCN(C6CCN(C)CC6)CC5)cc4)CC3)C2=O)ccc1-c1cn[nH]c1` [Example 244, 2-[3-methoxy-4-(1H-pyrazol-4-yl)phenyl]-8-{4-[4-(1-methylpiperidin-4-yl)piperazin-1-yl]benzoyl}-2,8-diazaspiro[4.5]decan-1-one] showed an IC50 of 0.9 nM. This IC50 and that of the compound before are within 1.5-fold of each other.

As to `COc1cc(N2CCC3(CCN(C(=O)c4ccc(C(F)(F)F)nc4)CC3)C2=O)ccc1-c1cn[nH]c1` [Example 87, 2-[3-methoxy-4-(1H-pyrazol-4-yl)phenyl]-8-[6-(trifluoromethyl)pyridine-3-carbonyl]-2,8-diazaspiro[4.5]decan-1-one], the IC50 stood at 557 nM.

The compound `COc1cc(N2CCC3(CCN(C(=O)c4ccc(N5CCN(CCC(C)(C)C)CC5)cc4)CC3)C2=O)ccc1-c1cn[nH]c1` [Example 231, 8-{4-[4-(3,3-dimethylbutyl)piperazin-1-yl]benzoyl}-2-[3-methoxy-4-(1H-pyrazol-4-yl)phenyl]-2,8-diazaspiro[4.5]decan-1-one] displayed a 50% inhibitory concentration (IC50) of 2.2 nM.

Consider `COc1cc(N2CCC3(CCN(C(=O)c4cccnc4)CC3)C2=O)ccc1-c1cn[nH]c1` [Example 73, 2-[3-methoxy-4-(1H-pyrazol-4-yl)phenyl]-8-(pyridine-3-carbonyl)-2,8-diazaspiro[4.5]decan-1-one], for which the half-maximal inhibitory concentration (IC50) was found to be 414 nM.

`COc1cc(N2CCC3(CCN(C(=O)c4ccc(-c5nnco5)cc4)CC3)C2=O)ccc1-c1cn[nH]c1` [Example 163, 2-[3-methoxy-4-(1H-pyrazol-4-yl)phenyl]-8-[4-(1,3,4-oxadiazol-2-yl)benzoyl]-2,8-diazaspiro[4.5]decan-1-one] registered an IC50 of 16 nM.
